Reference: patent US9844529B2, “Combination therapy for ovarian cancer” (Eli Lilly And Company, priority 2011, dated 2017)

What was measured:
SK-OV-3x.luc xenografts = assay: SK-OV-3x.luc ovarian cancer xenograft tumor growth inhibition in mice; format: in vivo, mouse
Description: (§1) Human tumor mouse xenografts are generated from early passages of the following ovarian cancer cell lines: A-2780 (National Cancer Institute), SK-OV-3x.luc (SK-OV-3 cell line modified to express luciferase (#1, medium expressing), Indiana University). A-2780 ovarian cancer cells are grown in RPMI 1640 with L-glutamine, 25 mM HEPES (Invitrogen 22400-089) supplemented with 1 mM pyruvate and 10% Certified Fetal Bovine Serum (Gibco 16000, FBS). SK-OV-3x.luc cells (ovarian cancer cells) are grown in McCoy's 5A Medium with L-glutamine (Invitrogen 16600-082) supplemented with non-essential amino acids, 1 mM pyruvate and 10% FBS. Harlan athymic nude mice (6-7 weeks old) are housed with ad libitum feed and water, and are acclimated for one week prior to subcutaneous xenograft implantation in the right rear flank with a defined number of cells. A-2780 or SK-OV-3x.luc implants consist of 0.1 mL of cells (2 or 5×10^6 cells, respectively) in serum-free media with 0.1 mL MATRIGEL® (BD Biosciences) for a final volume of 0.2 mL. Tumors are allowed to develop to a volume of 120-150 mm^3 and are then randomized into treatment groups to attain a consistent average tumor size across all groups. Each treatment group of the SK-OV-3x.luc study is 12 animals; each group of the A-2780 study is 20 animals. Compound A is prepared weekly in hydroxyethylcellulose (HEC) 1%/TWEEN® 80 0.25%/Antifoam 0.05% (HEC/TWEEN®) and stored at 4° C. […] Compound A, 30 mg/kg, oral, TID×21/gemcitabine+cisplatin, 100+4 mg/kg, IP, QW×3* • *SK-OV-3x.luc study only Tumor volume and body weight are recorded and analyzed twice weekly using a data capture and analysis tool. Tumor volume (mm^3) is estimated by using the formula: ν=l×w^2×0.536 where l=larger of measured diameter and w=smaller of perpendicular diameter. Antitumor activity is calculated as a percent reduction of treated (T) tumor volume relative to untreated control (C) tumor volume [1−(T/C)]×100. […]

A-2780 xenografts = assay: A-2780 ovarian cancer xenograft tumor growth inhibition in mice; format: in vivo, mouse; conditions: Compound A 10 mg/kg oral TID×21 alone
Description: as §1, with “cells.” for “cells. A-2780 or SK-OV-3x.luc implants consist of 0.1 mL of cells (2 or 5×10^6 cells, respectively) in serum-free media with 0.1 mL MATRIGEL® (BD Biosciences) for a final volume of 0.2 mL. Tumors are allowed to develop to a volume of 120-150 mm^3 and are then randomized into treatment groups to attain a consistent average tumor size across all groups. Each treatment group of the SK-OV-3x.luc study is 12 animals; each group of the A-2780 study is 20 animals. Compound A is prepared weekly in hydroxyethylcellulose (HEC) 1%/TWEEN® 80 0.25%/Antifoam 0.05% (HEC/TWEEN®) and stored at 4° C.”

CC(C)(C)Cn1c(N)nc2ccc(-c3nc(C(C)(C)C)[nH]c3-c3ccc(F)cc3)nc21 [Compound A, 5-[2-tert-Butyl-5-(4-fluorophenyl)-1H-imidazol-4-yl]-3-(2,2-dimethylpropyl)imidazo[4,5-b]pyridin-2-amine dimethanesulfonate]
Max % wt. loss (SK-OV-3x.luc xenografts; Compound A 30 mg/kg oral TID×21 alone, SK-OV-3x.luc): 1.4% | final tumor volume (SK-OV-3x.luc xenografts; Compound A 30 mg/kg oral TID×21 alone, SK-OV-3x.luc, 3 weeks): 522 ± 54 mm^3 | final average tumor volume compared with vehicle control (SK-OV-3x.luc xenografts; Compound A alone, 3 weeks, SK-OV-3x.luc xenografts): not significantly different from vehicle control | Max % wt. loss (A-2780 xenografts): 3.0% | final tumor volume (A-2780 xenografts; 3 weeks): 1828 ± 208 mm^3
